Experimental data taken from patent US20100286215A1, “BIS-AROMATIC COMPOUNDS USEFUL IN THE TREATMENT OF INFLAMMATION” (BIS-AROMATIC COMPOUNDS USEFUL IN THE TREATMENT OF …, priority 2007, published 2010).

Molecular target: T1, Recombinant human LTC4 synthase (Homo sapiens, UniProt Q16873)
T1 construct: made in house; host or cells: Pichia pastoris ('Piccia pastoralis' [sic])
T1 sequence (Q16873 1-150): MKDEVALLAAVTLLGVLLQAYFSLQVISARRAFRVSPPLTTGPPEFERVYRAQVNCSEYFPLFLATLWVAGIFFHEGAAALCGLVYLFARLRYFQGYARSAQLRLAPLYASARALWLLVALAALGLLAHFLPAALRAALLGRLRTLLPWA
Experiment: LTC4 synthase assay (conversion of LTA4 methyl ester to LTC4 methyl ester, HPLC)
Format: biochemical
Conditions: not given
Experimental: In the assay LTC4 synthase catalyses the reaction where the substrate LTA4 methyl ester is converted to LTC4 methyl ester. Recombinant human LTC4 synthase is expressed in Piccia pastoralis and the purified enzyme is dissolved in 25 mM Tris-buffer pH 7.8 and stored at −20° C. The assay is performed in phosphate buffered saline (PBS) pH 7.4, supplemented with 5 mM glutathione (GSH). The reaction is terminated by addition of acetonitrile/MeOH/acetic acid (50/50/1). The assay is performed at rt in 96-well plates. Analysis of the formed LTC4 methyl ester is performed with reversed phase HPLC (Waters 2795 utilizing an Onyx Monolithic C18 column). The mobile phase consists of acetonitrile/MeOH/H2O (32.5/30/37.5) with 1% acetic acid pH adjusted with NH3 to pH 5.6, and absorbance measured at 280 nm with a Waters 2487 UV-detector.
The following is added chronologically to each well: • 1. 50 μl assay buffer, PBS with 5 mM GSH. • 2. 0.5 μl inhibitor in DMSO. • 3. 2 μl LTC4 synthase in PBS. The total protein concentration in this solution is 0.025 mg/ml. Incubation of the plate at room temperature for 10 minutes. • 4. 0.5 μl LTA4 methyl ester. Incubation of the plate at rt for 1 min. • 5. 50 μl stop solution. 80 μl of the incubation mixture is analysed with HPLC.

SMILES	IC50 [µM]
CCCCOc1ccc(S(=O)(=O)Nc2ccc(C(=O)c3ccc(NC(=O)c4ccc(OC(C)C)cc4)c(C(=O)O)c3)cc2C(=O)O)cc1 [Example 13, 5-[(3-Carboxy-4-(4-n-butoxy-benzenesulfonylamino)benzoyl)]-2-(4-isopropoxybenzoylamino)-benzoic acid]	0.086
O=C(Nc1ccc(C(=O)c2ccc(NC(=O)c3ccc(C(F)(F)F)cc3F)c(C(=O)O)c2)cc1C(=O)O)c1ccc(C(F)(F)F)cc1 [Example 8, 2-(2-fluoro-4-(trifluoromethyl)benzamido)-5-(4-(4-(tri-fluoromethyl)benzamido)-3-carboxyphenylcarbonyl)-benzoic acid]	0.073
O=C(c1ccc(NS(=O)(=O)c2ccc([N+](=O)[O-])cc2)c(C(=O)O)c1)c1ccc(NS(=O)(=O)c2ccc([N+](=O)[O-])cc2)c(C(=O)O)c1 [Example 4, 2-((4-nitrophenyl)sulfonylamino)-5-(3-carboxy-4-(((4-nitrophenyl)-sulfonyl)amino)benzoyl)benzoic acid]	0.191

Same assay, conditions: inhibitor concentration 10 μM; read-out: Percantage Inhibition at 10 μM (unless specified otherwise)

SMILES	inhibition at 10 µM [%]
CCOc1ccc(NC(=O)Nc2ccc(C(=O)c3ccc(Nc4ccc(F)c(F)c4)c(C(=O)O)c3)cc2)cc1 [5:2, 2-(3,4-Difluoro-phenylamino)-5-{4-[3-(4-ethoxy-phenyl)-ureido]-benzoyl}-benzoic acid]	100
CN(c1ccc(Cl)cc1)c1ccc(C(=O)c2ccc(Oc3cccc(Cl)c3)c(C(=O)O)c2)cc1 [6:2, 2-(3-Chloro-phenoxy)-5-{4-[(4-chloro-phenyl)-methyl-amino]-benzoyl}-benzoic acid]	96
O=C(Nc1ccc(C(=O)c2ccc(NC(=O)c3cccc(Cl)c3)c(C(=O)O)c2)cc1)c1cccc(Cl)c1 [7:1, 2-(3-Chloro-benzoylamino)-5-[4-(3-chloro-benzoylamino)-benzoyl]-benzoic acid]	97
CCCCOc1ccc(S(=O)(=O)Nc2ccc(C(=O)c3ccc(NC(=O)c4ccc(OC(C)C)cc4)c(C(=O)O)c3)cc2C(=O)O)cc1 [Example 13, 5-[(3-Carboxy-4-(4-n-butoxy-benzenesulfonylamino)benzoyl)]-2-(4-isopropoxybenzoylamino)-benzoic acid]	100
O=C(c1ccc(NC(=O)c2ccccc2Cl)cc1)c1ccc(Nc2ccc(F)c(F)c2)c(C(=O)O)c1 [5:5, 5-[4-(2-Chloro-benzoylamino)-benzoyl]-2-(3,4-difluoro-phenylamino)-benzoic acid]	97
O=C(c1ccc(NC(=O)c2cc(Cl)cnc2Cl)cc1)c1ccc(Nc2ccc(F)c(F)c2)c(C(=O)O)c1 [5:12, 5-{4-[(2,5-Dichloro-pyridine-3-carbonyl)-amino]-benzoyl}-2-(3,4-difluoro-phenylamino)-benzoic acid]	98
CN(c1ccc(Cl)cc1)c1ccc(C(=O)c2ccc(Oc3cccc4c3CCCC4)c(C(=O)O)c2)cc1 [6:10, 5-{4-[(4-Chloro-phenyl)-methyl-amino]-benzoyl}-2-(5,6,7,8-tetrahydro-naphthalen-1-yloxy)-benzoic acid]	88
COc1cc(Cl)ccc1Oc1ccc(C(=O)c2ccc(N(C)c3ccc(Cl)cc3)cc2)cc1C(=O)O [6:5, 2-(4-Chloro-2-methoxy-phenoxy)-5-{4-[(4-chloro-phenyl)-methyl-amino]-benzoyl}-benzoic acid]	98
O=C(c1ccc(Nc2ccc(Cl)cn2)cc1)c1ccc(Nc2ccc(F)c(F)c2)c(C(=O)O)c1 [5:6, 5-[4-(5-Chloro-pyridin-2-ylamino)-benzoyl]-2-(3,4-difluoro-phenylamino)-benzoic acid]	84
O=C(c1ccc(NC(=O)c2cc(Cl)ccc2O)cc1)c1ccc(Nc2ccc(F)c(F)c2)c(C(=O)O)c1 [5:4, 5-[4-(5-Chloro-2-hydroxy-benzoylamino)-benzoyl]-2-(3,4-difluoro-phenylamino)-benzoic acid]	78
CN(c1ccc(Cl)cc1)c1ccc(C(=O)c2ccc(Oc3cccc(Cl)c3F)c(C(=O)O)c2)cc1 [6:6, 2-(3-Chloro-2-fluoro-phenoxy)-5-{4-[(4-chloro-phenyl)-methyl-amino]-benzoyl}benzoic acid]	83
CN(c1ccc(Cl)cc1)c1ccc(C(=O)c2ccc(Oc3ccccc3Cl)c(C(=O)O)c2)cc1 [6:4, 2-(2-Chloro-phenoxy)-5-{4-[(4-chloro-phenyl)-methyl-amino]-benzoyl}-benzoic acid]	97
O=C(c1ccc(NS(=O)(=O)c2ccc([N+](=O)[O-])cc2)c(C(=O)O)c1)c1ccc(NS(=O)(=O)c2ccc([N+](=O)[O-])cc2)c(C(=O)O)c1 [Example 4, 2-((4-nitrophenyl)sulfonylamino)-5-(3-carboxy-4-(((4-nitrophenyl)-sulfonyl)amino)benzoyl)benzoic acid]	100

Further lines, results first:

inhibition at 10 µM [%]	SMILES
75	CN(c1ccc(F)c(F)c1)c1ccc(C(=O)c2ccc(Nc3ccc(Cl)cc3)cc2)cc1C(=O)O [Example 19, 5-(4-(4-chlorophenylamino)-benzoyl)-2-((3,4-difluoro-phenyl)(methyl)amino)-benzoic acid]
98	CCCCc1ccc(C(=O)Nc2ccc(C(=O)c3ccc(NC(=O)c4ccc(CCCC)cc4)c(C(=O)O)c3)cc2C(=O)O)cc1 [Example 3, 2-(4-butylbenzamido)-5-(4-(4-butylbenzamido)-3-carboxy-phenylcarbonyl)benzoic acid]
94	O=C(c1ccc(Nc2ccc(Cl)cc2)cc1)c1ccc(Nc2ccc(F)c(F)c2)c(C(=O)O)c1 [Example 16, 5-(4-(4-chlorophenylamino)-benzoyl)-2-(3,4-difluoro-phenylamino)benzoic acid]
71	CN(c1ccc(Cl)cc1)c1ccc(C(=O)c2ccc(Nc3ccc(C(F)(F)F)cc3)c(-c3nnn[nH]3)c2)cc1 [10:3, {4-[(4-Chloro-phenyl)-methyl-amino]-phenyl}-[3-(1H-tetrazol-5-yl)-4-(4-trifluoromethyl-phenylamino)-phenyl]-methanone]
86	CN(c1ccc(Cl)cc1)c1ccc(C(=O)c2ccc(NC3CCC(C(C)(C)C)CC3)c(C(=O)O)c2)cc1 (stereo not drawn) [Example 14:3, 2-(4-tert-Butyl-cyclohexylamino)-5-{4-[(4-chloro-phenyl)-methyl-amino]-benzoyl}-benzoic acid]
84	CN(c1ccc(Cl)cc1)c1ccc(C(=O)c2ccc(Oc3cccc(Cl)c3)c(-c3nnn[nH]3)c2)cc1 [10:2, [4-(3-Chloro-phenoxy)-3-(1H-tetrazol-5-yl)-phenyl]-{4-[(4-chloro-phenyl)-methyl-amino]-phenyl}-methanone]
100	O=C(Nc1ccc(C(=O)c2ccc(NC(=O)c3ccc(C(F)(F)F)cc3F)c(C(=O)O)c2)cc1C(=O)O)c1ccc(C(F)(F)F)cc1 [Example 8, 2-(2-fluoro-4-(trifluoromethyl)benzamido)-5-(4-(4-(tri-fluoromethyl)benzamido)-3-carboxyphenylcarbonyl)-benzoic acid]
100	CN(c1ccc(F)c(F)c1)c1ccc(C(=O)c2ccc(NC(=O)c3cc(Cl)ccc3O)cc2)cc1C(=O)O [Example 18, 5-(4-(5-chloro-2-hydroxy-benzamido)benzoyl)-2-((3,4-difluorophenyl)(methyl)-amino)benzoic acid]
93	O=C(CC1CCCC1)Nc1ccc(C(=O)c2ccc(NC(=O)c3ccc(Cl)cc3Cl)c(C(=O)O)c2)cc1 [14:1, 5-[4-(2-Cyclopentyl-acetylamino)-benzoyl]-2-(2,4-dichloro-benzoylamino)-benzoic acid]
99	O=C(c1ccc(NS(=O)(=O)c2ccc(Cl)cc2)cc1)c1ccc(NC(=O)c2cccc(C(F)(F)F)c2F)c(C(=O)O)c1 [7:9, 5-[4-(4-Chloro-benzenesulfonylamino)-benzoyl]-2-(2-fluoro-3-trifluoromethyl-benzoylamino)-benzoic acid]
96	O=C(c1ccc(NS(=O)(=O)c2ccc(Cl)cc2)cc1)c1ccc(NC(=O)c2cc(Cl)ccc2O)c(C(=O)O)c1 [7:8, 5-[4-(4-Chloro-benzenesulfonylamino)-benzoyl]-2-(5-chloro-2-hydroxy-benzoylamino)-benzoic acid]
77	CN(c1ccc(Cl)cc1)c1ccc(C(=O)c2ccc(NC(=O)c3cccc(Cl)c3Cl)c(-c3nnn[nH]3)c2)cc1 [10:4, 2,3-Dichloro-N-[4-{4-[(4-chloro-phenyl)-methyl-amino]-benzoyl}-2-(1H-tetrazol-5-yl)-phenyl]-benzamide]
86	CN(c1ccc(Cl)cc1)c1ccc(C(=O)c2ccc(Nc3ccc(C(F)(F)F)cc3)c(C(=O)O)c2)cc1 [9:3, 5-{4-[(4-Chloro-phenyl)-methyl-amino]-benzoyl}-2-(4-trifluoromethyl-phenylamino)-benzoic acid]
97	O=C(c1ccc(Nc2ccc(Cl)cc2)c(C(=O)O)c1)c1ccc(Nc2ccc(Cl)cc2)c(C(=O)O)c1 [11:1, 5-{3-Carboxy-[4-(4-chloro-phenylamino)]-benzoyl}-2-(4-chloro-phenylamino)-benzoic acid]
82	CN(c1ccc(Cl)cc1)c1ccc(C(=O)c2ccc(N(C)c3ccc(Cl)cc3)c(C(=O)O)c2)cc1C(=O)O [11:2, 5-{3-Carboxy-4-[(4-chlorophenyl)-methyl-amino]benzoyl}-2-[(4-chloro-phenyl)-methyl-amino]benzoic acid]
100	O=C(Nc1ccc(C(=O)c2ccc(NC(=O)c3cccc(F)c3F)c(C(=O)O)c2)cc1)c1cccc(Cl)c1 [7:4, 5-[4-(3-Chloro-benzoylamino)-benzoyl]-2-(2,3-difluoro-benzoylamino)-benzoic acid]
100	O=C(Nc1ccc(C(=O)c2ccc(NC(=O)c3cccc4c3OC(F)(F)O4)c(C(=O)O)c2)cc1)c1cccc(Cl)c1 [7:6, 5-[4-(3-Chloro-benzoylamino)-benzoyl]-2-[(2,2-difluoro-benzo[1,3]dioxole-4-carbonyl)-amino]-benzoic acid]
